Results published in article PMC7093416, “Selective USP7 inhibition elicits cancer cell killing through a p53-dependent mechanism” (Scientific Reports, 2020).

Tested on: panel of 484 cancer cell lines
Assay: PRISM cancer cell line profiling, 5 days
Type: cell-based
Set-up: AUC: unit not given beside the values
Experimental: Cancer cell line profiling was performed using the Broad’s PRISM platform. Cell treatment and data analysis were performed as described in Yu et al[42]. Raw Luminex signal was converted to AUC values for each cell line as described. The resulting AUC profile for each compound was modeled against DepMap using the limma package in R[71]. Because hotspot mutation analysis was performed against DepMap, TP53 annotations in Fig. 6c,d are directly from DepMap.

Compound `CN1CCN(CCC(=O)Nc2ccc3c(=O)n(CC4(O)CCN(C(=O)[C@@H](CCCNC(=O)c5ccc6c(Cl)c7c(nc6c5)CCCC7)Cc5ccccc5)CC4)cnc3c2)CC1` [XL177A] has an AUC (8MGBA_CENTRAL_NERVOUS_SYSTEM) of 1.174, an AUC (22RV1_PROSTATE) of 0.9618 and an AUC (42MGBA_CENTRAL_NERVOUS_SYSTEM) of 1. For the same compound, the AUC (253JBV_URINARY_TRACT) was 0.9502, the AUC (253J_URINARY_TRACT) was 1.095 and the AUC (639V_URINARY_TRACT) was 0.832. For the same compound, the AUC (647V_URINARY_TRACT) was 1.06, the AUC (769P_KIDNEY) was 1.126 and the AUC (786O_KIDNEY) was 1.266. It also gave an AUC (5637_URINARY_TRACT) of 1.038, an AUC (8305C_THYROID) of 1.048 and an AUC (8505C_THYROID) of 0.9221. The AUC (2313287_STOMACH) was 1.154, the AUC (A101D_SKIN) was 1.013 and the AUC (A172_CENTRAL_NERVOUS_SYSTEM) was 0.8471. The AUC (A204_SOFT_TISSUE) was 0.8422, the AUC (A375_SKIN) was 1.23 and the AUC (A549_LUNG) was 0.8217. The AUC (A673_BONE) was 1.349, the AUC (A704_KIDNEY) was 1.109 and the AUC (A2058_SKIN) was 0.9507. For the same compound, the AUC (A2780_OVARY) was 0.804, the AUC (ABC1_LUNG) was 1.07 and the AUC (ACCMESO1_PLEURA) was 1.035. It also gave an AUC (ACHN_KIDNEY) of 1.124, an AUC (AGS_STOMACH) of 0.9408 and an AUC (AN3CA_ENDOMETRIUM) of 0.9198. It also gave an AUC (ASPC1_PANCREAS) of 1.1544, an AUC (BC3C_URINARY_TRACT) of 1.1182 and an AUC (BCPAP_THYROID) of 0.9965. The AUC (BECKER_CENTRAL_NERVOUS_SYSTEM) was 0.8518, the AUC (BEN_LUNG) was 1.124 and the AUC (BFTC905_URINARY_TRACT) was 0.8686. The AUC (BFTC909_KIDNEY) was 0.9138, the AUC (BHT101_THYROID) was 0.9801 and the AUC (BICR6_UPPER_AERODIGESTIVE_TRACT) was 0.8445. The AUC (BICR16_UPPER_AERODIGESTIVE_TRACT) was 0.8236, the AUC (BICR31_UPPER_AERODIGESTIVE_TRACT) was 0.8691 and the AUC (BICR56_UPPER_AERODIGESTIVE_TRACT) was 0.8298. It also gave an AUC (BT474_BREAST) of 1.426, an AUC (BT549_BREAST) of 0.9189 and an AUC (BXPC3_PANCREAS) of 1.188. For the same compound, the AUC (CADOES1_BONE) was 1.097, the AUC (CAKI1_KIDNEY) was 1.0035 and the AUC (CAL12T_LUNG) was 1.065. It also gave an AUC (CAL27_UPPER_AERODIGESTIVE_TRACT) of 0.8579, an AUC (CAL29_URINARY_TRACT) of 0.9717 and an AUC (CAL51_BREAST) of 0.9698. It also gave an AUC (CAL54_KIDNEY) of 1.122, an AUC (CAL62_THYROID) of 0.9897 and an AUC (CAL78_BONE) of 0.8669. It also gave an AUC (CAL120_BREAST) of 0.8877, an AUC (CALU1_LUNG) of 1.403 and an AUC (CALU6_LUNG) of 0.9933. The AUC (CAMA1_BREAST) was 0.994, the AUC (CAOV3_OVARY) was 1.046 and the AUC (CAPAN2_PANCREAS) was 1.09. It also gave an AUC (CCFSTTG1_CENTRAL_NERVOUS_SYSTEM) of 0.9028, an AUC (CFPAC1_PANCREAS) of 1.131 and an AUC (CHL1_SKIN) of 1.028. It also gave an AUC (CJM_SKIN) of 0.9117, an AUC (CL34_LARGE_INTESTINE) of 1.2091 and an AUC (COLO668_LUNG) of 0.9325. The AUC (COLO679_SKIN) was 0.9271, the AUC (COLO680N_OESOPHAGUS) was 0.903 and the AUC (COLO741_SKIN) was 1.181. For the same compound, the AUC (COLO783_SKIN) was 0.896, the AUC (COLO792_SKIN) was 1.217 and the AUC (COLO800_SKIN) was 0.9306. It also gave an AUC (CORL23_LUNG) of 0.9099, an AUC (CORL105_LUNG) of 0.9151 and an AUC (COV362_OVARY) of 0.9501. For the same compound, the AUC (COV434_OVARY) was 0.6134, the AUC (DANG_PANCREAS) was 1.103 and the AUC (DAOY_CENTRAL_NERVOUS_SYSTEM) was 0.9019. It also gave an AUC (DBTRG05MG_CENTRAL_NERVOUS_SYSTEM) of 0.986, an AUC (DETROIT562_UPPER_AERODIGESTIVE_TRACT) of 0.8984 and an AUC (DKMG_CENTRAL_NERVOUS_SYSTEM) of 1.055. It also gave an AUC (DMS273_LUNG) of 0.9756, an AUC (DU145_PROSTATE) of 0.9953 and an AUC (DV90_LUNG) of 0.6429. The “∆ (AUC, TP53 mutation vs WT; decreased sensitivity)” value (DepMap TP53 mutation annotation) was 0.0512, the AUC (EBC1_LUNG) was 0.8513 and the AUC (ECGI10_OESOPHAGUS) was 1.105. For the same compound, the AUC (EFM192A_BREAST) was 1.042, the AUC (EFO21_OVARY) was 0.9443 and the AUC (EFO27_OVARY) was 0.9949. It also gave an AUC (EN_ENDOMETRIUM) of 1.056, an AUC (ES2_OVARY) of 1.069 and an AUC (ESS1_ENDOMETRIUM) of 0.9952. The AUC (EWS502_BONE) was 1.4146, the AUC (FADU_UPPER_AERODIGESTIVE_TRACT) was 1.156 and the AUC (FTC133_THYROID) was 0.8526. For the same compound, the AUC (FTC238_THYROID) was 0.8658, the AUC (G292CLONEA141B1_BONE) was 1.276 and the AUC (G361_SKIN) was 1.1047. For the same compound, the AUC (G401_SOFT_TISSUE) was 0.6407, the AUC (G402_SOFT_TISSUE) was 0.5799 and the AUC (GAMG_CENTRAL_NERVOUS_SYSTEM) was 1.102. The AUC (GB1_CENTRAL_NERVOUS_SYSTEM) was 1.09, the AUC (GCIY_STOMACH) was 1.0232 and the AUC (GCT_SOFT_TISSUE) was 1.012. It also gave an AUC (GI1_CENTRAL_NERVOUS_SYSTEM) of 1.111, an AUC (GMS10_CENTRAL_NERVOUS_SYSTEM) of 1.007 and an AUC (GOS3_CENTRAL_NERVOUS_SYSTEM) of 0.7415. For the same compound, the AUC (GP2D_LARGE_INTESTINE) was 1.073, the AUC (H4_CENTRAL_NERVOUS_SYSTEM) was 0.8128 and the AUC (HARA_LUNG) was 1.29. For the same compound, the AUC (HCC15_LUNG) was 0.9559, the AUC (HCC38_BREAST) was 1.2075 and the AUC (HCC44_LUNG) was 0.9515. For the same compound, the AUC (HCC56_LARGE_INTESTINE) was 1.407, the AUC (HCC78_LUNG) was 1.024 and the AUC (HCC95_LUNG) was 0.9165. It also gave an AUC (HCC366_LUNG) of 0.9914, an AUC (HCC827_LUNG) of 0.8612 and an AUC (HCC1143_BREAST) of 1.083. It also gave an AUC (HCC1195_LUNG) of 0.8483, an AUC (HCC1359_LUNG) of 1.123 and an AUC (HCC1419_BREAST) of 1.047. For the same compound, the AUC (HCC1428_BREAST) was 0.8065.
